Measured values taken from PubChem BioAssay (NCI).
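GI50 = concentration required for 50% inhibition of growth. TGI marks complete inhibition of growth.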

Experiments:
Test in all cases: inhibition of tumour cell growth, NCI panel, 384-well format
[1] = system: 786-0 renal
[2] = system: A498 renal
[3] = system: A549 NSCLC
[4] = system: ACHN renal
[5] = system: BT-549 breast
[6] = system: CAKI-1 renal
[7] = system: CCRF-CEM leukemia
[8] = system: COLO 205 colon
[9] = system: DU-145 prostate
[10] = system: EKVX NSCLC
[11] = system: HCT-116 colon
[12] = system: HCT-15 colon
[13] = system: HL-60(TB) leukemia
[14] = system: HOP-62 NSCLC
[15] = system: HOP-92 NSCLC
[16] = system: HS 578T breast
[17] = system: HT29 colon
[18] = system: IGROV1 ovarian
[19] = system: K-562 leukemia
[20] = system: KM12 colon
[21] = system: LOX IMVI melanoma
[22] = system: M14 melanoma
[23] = system: MALME-3M melanoma
[24] = system: MCF7 breast
[25] = system: MDA-MB-231 breast
[26] = system: MDA-MB-435 melanoma
[27] = system: MDA-MB-468 breast
[28] = system: MOLT-4 leukemia
[29] = system: NCI-H226 lung
[30] = system: NCI-H322M lung
[31] = system: NCI-H460 NSCLC
[32] = system: NCI-H522 lung
[33] = system: OVCAR-3 ovarian
[34] = system: OVCAR-4 ovarian
[35] = system: OVCAR-5 ovarian
[36] = system: OVCAR-8 ovarian
[37] = system: PC-3 prostate
[38] = system: RPMI-8226 leukemia
[39] = system: RXF 393 renal
[40] = system: SF-268 CNS
[41] = system: SF-295 CNS
[42] = system: SF-539 CNS
[43] = system: SK-MEL-2 melanoma
[44] = system: SK-MEL-28 melanoma
[45] = system: SK-OV-3 ovarian
[46] = system: SN12C renal
[47] = system: SNB-19 CNS
[48] = system: SNB-75 CNS
[49] = system: SR leukemia
[50] = system: SW-620 colon
[51] = system: T-47D breast
[52] = system: TK-10 renal
[53] = system: U251 glioblastoma
[54] = system: UACC-257 melanoma
[55] = system: UACC-62 melanoma
[56] = system: UO-31 renal

Compound: CC1(C)CCC(CN2CCN(c3ccc(C(=O)NS(=O)(=O)c4ccc(NCC5CCOCC5)c([N+](=O)[O-])c4)c(Oc4cnc5[nH]ccc5c4)c3)CC2)=C(c2ccc(Cl)cc2)C1
- GI50 [1]: 3.15 µM
- TGI [1]: 9.12 µM
- GI50 [2]: 3.64 µM
- TGI [2]: 8.99 µM
- GI50 [3]: 4.97 µM
- TGI [3]: 11.2 µM
- GI50 [4]: 4.22 µM
- TGI [4]: 11.6 µM
- GI50 [5]: 3.79 µM
- TGI [5]: 9.18 µM
- GI50 [6]: 5.47 µM
- TGI [6]: 11.7 µM
- GI50 [7]: 7.94 µM
- GI50 [8]: 3.81 µM
- TGI [8]: 6.68 µM
- GI50 [9]: 5.66 µM
- TGI [9]: 18.5 µM
- GI50 [10]: 6.98 µM
- TGI [10]: 14.3 µM
- GI50 [11]: 4.46 µM
- TGI [11]: 11.8 µM
- GI50 [12]: 5.11 µM
- TGI [12]: 9.19 µM
- GI50 [13]: 105 nM
- TGI [13]: 802 nM
- GI50 [14]: 6.2 µM
- TGI [14]: 9.88 µM
- GI50 [15]: 1830 nM
- TGI [15]: 3.73 µM
- GI50 [16]: 3.14 µM
- TGI [16]: 7.93 µM
- GI50 [17]: 5.16 µM
- TGI [17]: 7.3 µM
- GI50 [18]: 2810 nM
- TGI [18]: 7.24 µM
- GI50 [19]: 2130 nM
- TGI [19]: 4.28 µM
- GI50 [20]: 5.75 µM
- TGI [20]: 8.84 µM
- GI50 [21]: 9.62 µM
- GI50 [22]: 3.51 µM
- TGI [22]: 9.14 µM
- GI50 [23]: 2810 nM
- TGI [23]: 6.5 µM
- GI50 [24]: 4.38 µM
- TGI [24]: 8.24 µM
- GI50 [25]: 2490 nM
- TGI [25]: 6.01 µM
- GI50 [26]: 3.43 µM
- TGI [26]: 16.6 µM
- GI50 [27]: 3.67 µM
- TGI [27]: 7.05 µM
- GI50 [28]: 1260 nM
- TGI [28]: 2620 nM
- GI50 [29]: 7.08 µM
- TGI [29]: 10.6 µM
- GI50 [30]: 4.57 µM
- TGI [30]: 11.5 µM
- GI50 [31]: 4.46 µM
- TGI [31]: 7.85 µM
- GI50 [32]: 14.9 µM
- TGI [32]: 20.2 µM
- GI50 [33]: 4.55 µM
- TGI [33]: 7.36 µM
- GI50 [34]: 2980 nM
- TGI [34]: 6.29 µM
- GI50 [35]: 3.53 µM
- TGI [35]: 6.62 µM
- GI50 [36]: 4.44 µM
- TGI [36]: 7.43 µM
- GI50 [37]: 4.61 µM
- TGI [37]: 12.2 µM
- GI50 [38]: 1750 nM
- TGI [38]: 3.99 µM
- GI50 [39]: 3.41 µM
- TGI [39]: 5.69 µM
- GI50 [40]: 3.84 µM
- TGI [40]: 8.19 µM
- GI50 [41]: 3.98 µM
- TGI [41]: 7.88 µM
- GI50 [42]: 3.6 µM
- TGI [42]: 7.94 µM
- GI50 [43]: 1930 nM
- TGI [43]: 3.43 µM
- GI50 [44]: 4.05 µM
- TGI [44]: 9.58 µM
- GI50 [45]: 15.5 µM
- TGI [45]: 21.1 µM
- GI50 [46]: 4.52 µM
- TGI [46]: 14.9 µM
- GI50 [47]: 5.63 µM
- TGI [47]: 11 µM
- GI50 [48]: 4.58 µM
- TGI [48]: 9.27 µM
- GI50 [49]: 1380 nM
- TGI [49]: 2680 nM
- GI50 [50]: 6.09 µM
- TGI [50]: 7.57 µM
- GI50 [51]: 5.12 µM
- TGI [51]: 8.12 µM
- GI50 [52]: 6.84 µM
- TGI [52]: 12.4 µM
- GI50 [53]: 5.89 µM
- TGI [53]: 9.82 µM
- GI50 [54]: 5.19 µM
- TGI [54]: 7 µM
- GI50 [55]: 4.95 µM
- TGI [55]: 7.13 µM
- GI50 [56]: 3.63 µM
- TGI [56]: 8 µM
